Values of other authors, collected in patent US11866789B2, “Targeted therapies for cancer” (THE TRANSLATIONAL GENOMICS RESEARCH INSTITUTE, priority 2015, dated 2024).

Tests used:
[1] = test system: Cell line models expressing NRG1 fusions; conditions: See Reference 29
[2] = test system: advanced biliary tract cancer or hepatobiliary cancer; conditions: 17 patients evaluated

Question: For `CS(=O)(=O)CCNCc1ccc(-c2ccc3ncnc(Nc4ccc(OCc5cccc(F)c5)c(Cl)c4)c3c2)o1` [Lapatinib], which “sensitivity of NRG1 fusion cell line models” value [1] is on record?
Answer: Its value is “increased sensitivity”.

Question: And the objective response [2]?
Answer: Its objective response is “no objective response”.
